Data reported in PMC5433425 (PeerJ, 2017).
“And” between values parts separate entries of the source, which are not always exact repeats. Identical values can stand only once.

Key:
[1] = test system: E. coli AG100tet; assay: EtBr accumulation by real-time fluorometry; conditions: EtBr 2 µg/ml + inhibitor 80 µM
[2] = test system: E. coli AG100; assay: EtBr efflux by real-time fluorometry; conditions: for EtBr fluorescence (Channel Cycling A.530/585hp): 80 µM, + glucose
Protocol: Control tubes with only cells and cells with and without 0.4% glucose were included. The fluorescence was measured in a Rotor-Gene 3000 and the data was acquired every 30 s for 30 min at 37 °C. The efflux activity was quantified by comparing the fluorescence data obtained under conditions that promote efflux (presence of glucose and absence of efflux inhibitor) with the data from the control in which the bacteria are under conditions of no efflux (presence of an inhibitor and no energy source).

[3] = test system: E. coli AG100; assay: Membrane permeability assay (Live/Dead BacLight); conditions: for BacLight Live/Dead fluorescence 485/20,528/20 / BacLight Live/Dead fluorescence 485/20,590/35: raw well reading

CCCOc1ccc(-c2cc(OCCN3CCNCC3)c3ccccc3n2)cc1 [PQQ4R, 4-(2-(piperazin-1-yl)ethoxy)-2-(4-propoxyphenyl) quinolone] showed an EtBr fluorescence ([1]; cycle 9) of 17.8761, an EtBr fluorescence ([1]; cycle 10) of 18.9066 and an EtBr fluorescence ([1]; cycle 11) of 20.4282. It also gave an EtBr fluorescence ([1]; cycle 12) of 21.7393, an EtBr fluorescence ([1]; cycle 13) of 23.4754 and an EtBr fluorescence ([1]; cycle 14) of 25.1013. It also gave an EtBr fluorescence ([1]; cycle 15) of 27.2614, an EtBr fluorescence ([1]; cycle 16) of 29.2172 and an EtBr fluorescence ([1]; cycle 17) of 32.322. The EtBr fluorescence ([1]; cycle 18) was 34.6681, the EtBr fluorescence ([1]; cycle 19) was 38.0364 and the EtBr fluorescence ([1]; cycle 20) was 40.8691. For the same compound, the EtBr fluorescence ([1]; cycle 21) was 44.3636, the EtBr fluorescence ([1]; cycle 22) was 47.9426 and the EtBr fluorescence ([1]; cycle 23) was 51.4641. For the same compound, the EtBr fluorescence ([1]; cycle 24) was 55.2307, the EtBr fluorescence ([1]; cycle 25) was 58.9315 and the EtBr fluorescence ([1]; cycle 26) was 63.4348. It also gave an EtBr fluorescence ([1]; cycle 27) of 67.7728, an EtBr fluorescence ([1]; cycle 28) of 71.5821 and an EtBr fluorescence ([1]; cycle 29) of 76.2698. The EtBr fluorescence ([1]; cycle 30) was 79.495, the “inhibition of EtBr efflux” value ([2]; AG100, AG100A and AG100tet (Fig. 2), 80 μM (20 μM for AG100A), glucose, 37 °C) was “inhibited” and the “EtBr fluorescence (Channel Cycling A.530/585hp)” value ([2]; cycle 1) was 14.1835. For the same compound, the “EtBr fluorescence (Channel Cycling A.530/585hp)” value ([2]; cycle 2) was 12.9442, the “EtBr fluorescence (Channel Cycling A.530/585hp)” value ([2]; cycle 3) was 12.1458 and the “EtBr fluorescence (Channel Cycling A.530/585hp)” value ([2]; cycle 9) was 9.004. The “EtBr fluorescence (Channel Cycling A.530/585hp)” value ([2]; cycle 10) was 8.5432, the “EtBr fluorescence (Channel Cycling A.530/585hp)” value ([2]; cycle 11) was 8.357 and the “EtBr fluorescence (Channel Cycling A.530/585hp)” value ([2]; cycle 12) was 8.087. For the same compound, the “EtBr fluorescence (Channel Cycling A.530/585hp)” value ([2]; cycle 13) was 7.737, the “EtBr fluorescence (Channel Cycling A.530/585hp)” value ([2]; cycle 14) was 7.571 and the “EtBr fluorescence (Channel Cycling A.530/585hp)” value ([2]; cycle 15) was 7.486. The “EtBr fluorescence (Channel Cycling A.530/585hp)” value ([2]; cycle 16) was 7.363, the “EtBr fluorescence (Channel Cycling A.530/585hp)” value ([2]; cycle 17) was 7.106 and the “EtBr fluorescence (Channel Cycling A.530/585hp)” value ([2]; cycle 18) was 6.949. The “EtBr fluorescence (Channel Cycling A.530/585hp)” value ([2]; cycle 19) was 6.811, the “EtBr fluorescence (Channel Cycling A.530/585hp)” value ([2]; cycle 20) was 6.647 and the “EtBr fluorescence (Channel Cycling A.530/585hp)” value ([2]; cycle 21) was 6.6451. For the same compound, the “EtBr fluorescence (Channel Cycling A.530/585hp)” value ([2]; cycle 22) was 6.375, the “EtBr fluorescence (Channel Cycling A.530/585hp)” value ([2]; cycle 23) was 6.294 and the “EtBr fluorescence (Channel Cycling A.530/585hp)” value ([2]; cycle 24) was 6.27. For the same compound, the “EtBr fluorescence (Channel Cycling A.530/585hp)” value ([2]; cycle 25) was 6.171, the “EtBr fluorescence (Channel Cycling A.530/585hp)” value ([2]; cycle 26) was 6.0708 and the “EtBr fluorescence (Channel Cycling A.530/585hp)” value ([2]; cycle 27) was 5.906. For the same compound, the “EtBr fluorescence (Channel Cycling A.530/585hp)” value ([2]; cycle 28) was 5.869, the “EtBr fluorescence (Channel Cycling A.530/585hp)” value ([2]; cycle 29) was 5.816 and the “EtBr fluorescence (Channel Cycling A.530/585hp)” value ([2]; cycle 30) was 5.711. The “EtBr fluorescence (Channel Cycling A.530/585hp)” value ([2]; cycle 31) was 5.67, the “EtBr fluorescence (Channel Cycling A.530/585hp)” value ([2]; cycle 32) was 5.576 and the “EtBr fluorescence (Channel Cycling A.530/585hp)” value ([2]; cycle 33) was 5.469. For the same compound, the “EtBr fluorescence (Channel Cycling A.530/585hp)” value ([2]; cycle 34) was 5.4, the “EtBr fluorescence (Channel Cycling A.530/585hp)” value ([2]; cycle 35) was 5.309 and the “EtBr fluorescence (Channel Cycling A.530/585hp)” value ([2]; cycle 36) was 5.284. For the same compound, the “EtBr fluorescence (Channel Cycling A.530/585hp)” value ([2]; cycle 37) was 5.241, the “EtBr fluorescence (Channel Cycling A.530/585hp)” value ([2]; cycle 38) was 5.208 and the “EtBr fluorescence (Channel Cycling A.530/585hp)” value ([2]; cycle 39) was 5.097. For the same compound, the “EtBr fluorescence (Channel Cycling A.530/585hp)” value ([2]; cycle 40) was 5.016, the “EtBr fluorescence (Channel Cycling A.530/585hp)” value ([2]; cycle 41) was 5.035 and the “EtBr fluorescence (Channel Cycling A.530/585hp)” value ([2]; cycle 42) was 4.981. The “EtBr fluorescence (Channel Cycling A.530/585hp)” value ([2]; cycle 43) was 4.838, the “EtBr fluorescence (Channel Cycling A.530/585hp)” value ([2]; cycle 44) was 4.747 and the “BacLight Live/Dead fluorescence 485/20,528/20” value ([3]; 80 uM) was 153 and 118. The “BacLight Live/Dead fluorescence 485/20,590/35” value ([3]; 80 uM) was 38 and 30, the “BacLight Live/Dead fluorescence 485/20,528/20” value ([3]; 160 uM) was 278 and 253 and the “BacLight Live/Dead fluorescence 485/20,590/35” value ([3]; 160 uM) was 85 and 82. For the same compound, the “BacLight Live/Dead fluorescence 485/20,528/20” value ([3]; 320 uM) was 277 and 252, the “BacLight Live/Dead fluorescence 485/20,590/35” value ([3]; 320 uM) was 87 and 78 and the “BacLight Live/Dead fluorescence 485/20,528/20” value ([3]; 640 uM) was 160 and 178. For the same compound, the “BacLight Live/Dead fluorescence 485/20,590/35” value ([3]; 640 uM) was 79 and 82, the “membrane permeability increase / membrane permeation” value ([3]; AG100, 80 µM) was 4% and the “effect on cell membrane integrity” value ([3]; AG100, 80 µM (≈1/8 MIC), 1 h) was “did not alter”. The membrane permeation ([3]; AG100, 160 μM (1/4 MIC)) was 22%, the membrane permeation ([3]; AG100, 320 μM (1/2 MIC)) was 28% and the membrane permeation ([3]; AG100, 640 μM (MIC)) was 50%. The “reduction of membrane integrity” value ([3]; AG100, half MIC, 1 h) was 28%.
